Assay results reported in patent US10016366B2, “Method of preparing lyophilized powder for injection comprising aloe and Panax pseudo-ginseng” (priority 2013, dated 2018).

What was measured:
ovariectomized mice [1] = experiment: Serum E2, LH and FSH of ovariectomized mice by ELISA; format: in vivo, female ICR mice; conditions: 1 mg/kg, one time per day, 14 days, M ± SD
Protocol: (§1) 3.1 Healthy female ICR mice weighted 20±2 g were anaesthetized by ether and fixed in the abdomen. Bilateral ovaries of the mice were extirpated via back incision below the costal bone. The wounds were stitched and the mice were cultured according to conventional methods. After the wounds were cured, vaginal smear examination was performed, one time per day for five consecutive days, to ensure the ovaries were completely extirpated. The mice in the dioestrum (observations of vaginal smears under microscope found a lot of polynuclear leucocytes and few epithelial cells) in the five consecutive days were qualified mice. 48 mice were randomly divided into 6 groups with each group 8 mice, that is, a model group (be administered with equal volume of normal saline), a diethyl stilbestrol group (1 mg/kg), J01 groups (144 mg/kg, 288 mg/kg), J02 groups (180 mg/kg, 360 mg/kg). Another 6 mice with bilateral ovaries were selected as a control group (be administered with equal volume of normal saline). The mice were administered with corresponding drugs, one time per day, for 14 consecutive days. After one hour from the last injection, blood was sampled from the orbital venous plexus, and centrifuged for 10 min at 3000 rpm. The serum was separated and the E2, LH and FSH values thereof were measured using ELISA method. Thereafter, the abdominal cavity was cut open quickly and thymus, spleen, and uterus were separated and weighed to calculate the coefficients of the thymus, spleen, and uterus.
(§2) The mice were administered with corresponding drugs, 5 mL/kg, one time per day, for 14 consecutive days.
(§3) Viscera index: coefficients of the thymus, spleen, and uterus. Viscera index=organ weight/mice body weight*10. Serum index: E2 (estradiol), LH (luteinizing hormone), FSH (follicle stimulating hormone).
(§4) The difference between groups of the measured data is examined based on ANOVA T-TEST using SPSS10.0.

ovariectomized mice [2] = experiment: Viscera index (thymus, spleen, uterus coefficients) of ovariectomized mice; format: in vivo, female ICR mice; conditions: 1 mg/kg, one time per day, 14 days, M ± SD
Protocol: as §1, §2, §3, §4

## CC/C(=C(/CC)c1ccc(O)cc1)c1ccc(O)cc1 [Diethylstilbestrol]
Ovariectomized mice [1]
  E2 (Estrogen): 113.81 ± 33.85 pg/mL
  FSH (Follicle Stimulating Hormone): 22.54 ± 6.97 ng/mL
  LH (luteinizing hormone): 31.33 ± 4.51 ng/mL
Ovariectomized mice [2]
  Spleen index: 66.67 ± 16.93 mg/10 g
  Thymus index: 32.99 ± 8.11 mg/10 g
  Uterus index: 62.67 ± 11.89 mg/10 g
